Reference: publication PMC12441834, “Highly Potent and Subtype-Selective Sperm-Specific Potassium Channel SLO3 Inhibitors Display High Tissue Exposure in the Murine Female Reproductive Tract” (ACS Pharmacology & Translational Science, 2025)
Where two headings read alike, the source gives them in different places.

Key:
[1] = target: Prostanoid EP4 (Homo sapiens, UniProt P35408); assay: LeadProfilingScreen radioligand binding
[2] = target: T1, mouse SLO3 (KSper currents in mouse sperm) (Mus musculus, UniProt O54982); assay: Whole-cell recording of KSper currents in mouse sperm; format: cell-based; settings: for Hill coefficient: mouse sperm KSper currents; for IC50: whole-cell recordings from mouse sperm
T1 construct: sperm were isolated from the corpus epididymis by swim-out; endogenous in cells; host or cells: C57Bl/6 mouse corpus epididymal sperm
T1 sequence (O54982 1-1121): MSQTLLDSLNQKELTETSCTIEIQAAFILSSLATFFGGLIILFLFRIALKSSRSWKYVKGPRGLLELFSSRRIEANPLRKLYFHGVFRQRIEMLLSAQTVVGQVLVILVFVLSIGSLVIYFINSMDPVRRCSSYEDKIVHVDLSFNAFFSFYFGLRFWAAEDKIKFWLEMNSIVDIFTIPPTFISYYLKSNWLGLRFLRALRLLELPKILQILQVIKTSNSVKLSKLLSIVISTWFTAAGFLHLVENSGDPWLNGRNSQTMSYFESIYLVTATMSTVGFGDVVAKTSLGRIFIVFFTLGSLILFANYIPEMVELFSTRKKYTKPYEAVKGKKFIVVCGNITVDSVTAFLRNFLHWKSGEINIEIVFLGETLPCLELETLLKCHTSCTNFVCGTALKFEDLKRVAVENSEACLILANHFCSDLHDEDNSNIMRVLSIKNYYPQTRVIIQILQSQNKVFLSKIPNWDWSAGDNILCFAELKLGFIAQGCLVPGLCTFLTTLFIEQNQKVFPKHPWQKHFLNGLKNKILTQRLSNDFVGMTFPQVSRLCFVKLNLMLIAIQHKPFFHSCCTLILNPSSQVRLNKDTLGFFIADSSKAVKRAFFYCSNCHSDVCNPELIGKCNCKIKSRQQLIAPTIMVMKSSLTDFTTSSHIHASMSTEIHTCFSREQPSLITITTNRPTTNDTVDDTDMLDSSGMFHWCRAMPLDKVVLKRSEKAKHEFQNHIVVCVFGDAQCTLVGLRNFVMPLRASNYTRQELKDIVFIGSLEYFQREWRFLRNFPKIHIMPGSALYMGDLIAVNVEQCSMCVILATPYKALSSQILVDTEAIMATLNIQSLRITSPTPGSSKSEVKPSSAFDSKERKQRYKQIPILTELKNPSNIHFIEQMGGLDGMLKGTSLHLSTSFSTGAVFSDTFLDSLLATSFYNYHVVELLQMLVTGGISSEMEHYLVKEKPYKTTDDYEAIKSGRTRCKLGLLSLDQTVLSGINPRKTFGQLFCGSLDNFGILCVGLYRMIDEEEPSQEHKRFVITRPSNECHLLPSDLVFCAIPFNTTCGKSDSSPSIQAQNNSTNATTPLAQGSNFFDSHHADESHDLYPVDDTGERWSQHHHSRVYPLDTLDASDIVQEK
T1 sequence (Q5M8M9 24-314 partner): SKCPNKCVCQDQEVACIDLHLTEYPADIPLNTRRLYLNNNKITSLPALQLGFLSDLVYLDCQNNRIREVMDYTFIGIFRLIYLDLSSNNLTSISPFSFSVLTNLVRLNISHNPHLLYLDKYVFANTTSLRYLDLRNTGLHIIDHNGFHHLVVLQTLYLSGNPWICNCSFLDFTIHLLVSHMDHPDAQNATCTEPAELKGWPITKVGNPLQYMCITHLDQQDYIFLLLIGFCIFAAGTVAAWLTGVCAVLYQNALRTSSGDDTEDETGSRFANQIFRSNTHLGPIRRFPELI
Protocol: Electrophysiology: C57Bl/6 sexually mature male mice (60–90 days old) were euthanized by inhalation of CO2 followed by cervical dislocation and sperm were isolated from the corpus epididymis by swim-out. Then the sperm suspension was collected and centrifuged (500×g, 6 min) twice to purify the sperm. HEPES-buffered saline (HS) was used for sperm swim-out and storage. It contained (in mM): 135 NaCl, 5 KCl, 1 MgSO4, 2 CaCl2, 20 HEPES, 5 glucose, 10 lactic acid, and 1 Na·pyruvate at pH 7.4. The sperm suspension was kept at room temperature (∼22 °C) for 4–6 h until recording. All animal husbandry and experimental procedures were approved by the Animal Studies Committee of the Washington University in St. Louis School of Medicine.
Voltage-clamp recordings were performed using an Axopatch 200B amplifier (Molecular Devices). Recordings were filtered at 5 kHz with the internal filter of the amplifier and digitized at 50 kHz using a Digidata 1550B digitizer (Molecular Devices). Recording pipettes were pulled from borosilicate glass with tip resistances of 3–8 MΩ after filling with pipette solution containing (in mM): 140 KMES, 1 EGTA, 10 HEPES, pH 7.4 with KOH. Bath solutions contained (in mM): 135 NaMES, 5 KMES, 2 MgCl2, and 10 HEPES, pH 7.4 with NaOH. Experiments were performed at room temperature (∼22 °C). Whole-cell currents were evoked from a holding potential of −60 mV in steps from −80 to +100 mV in 10 mV increments. Test compounds were prepared daily from a 10 mM stock solution (in DMSO).
For mouse sperm recordings, the pipettes were fire-polished with Microforge MF-830 (Narishige, Japan) to reach tip resistances of 8–12 MΩ. The giga-ohm (GΩ) seals were formed between the glass micropipette and the sperm cytoplasmic droplet in HS solution. Break-in to whole-cell mode was achieved by applying short (1–5 ms) voltage pulses of 488–888 mV.
Data were analyzed with a pClamp 10.6 (Molecular Devices). VU6047606 and VU6032735 inhibition dose–response relationships were fit by the Hill equation in OriginPro 7.5 (OriginLab Corporation): R=1/1+(C/IC50)^n+Ioff , in which R is fractional unblock, C is compound concentration, IC50 is the half inhibition concentration, n is the Hill coefficient, and I off is an offset item for leak current. Error bars in the figures represent the SDs. Each data point is averaged from at least 5 measurements. Curve-fitting results are reported as the fitted values with standard error, which was estimated by OriginPro according to the Error Propagation formula.

[3] = target: Opiate δ1 (OP1, DOP) (Homo sapiens, UniProt P41143); assay: LeadProfilingScreen radioligand binding
Sequence of Opiate δ1 (OP1, DOP) (P41143 whole entry): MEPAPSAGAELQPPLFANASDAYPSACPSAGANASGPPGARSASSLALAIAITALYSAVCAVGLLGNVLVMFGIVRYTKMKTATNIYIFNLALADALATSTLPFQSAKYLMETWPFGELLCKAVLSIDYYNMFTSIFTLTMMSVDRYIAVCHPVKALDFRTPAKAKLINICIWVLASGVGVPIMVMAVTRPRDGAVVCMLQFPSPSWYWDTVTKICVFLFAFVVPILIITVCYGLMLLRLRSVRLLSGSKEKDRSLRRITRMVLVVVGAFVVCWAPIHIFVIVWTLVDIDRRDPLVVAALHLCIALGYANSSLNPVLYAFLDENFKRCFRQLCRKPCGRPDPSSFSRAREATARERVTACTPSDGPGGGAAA

[4] = target: Glutamate, NMDA, Glycine (Rattus norvegicus, UniProt P35439); assay: LeadProfilingScreen radioligand binding
Sequence of Glutamate, NMDA, Glycine (P35439 394-800 limits assumed): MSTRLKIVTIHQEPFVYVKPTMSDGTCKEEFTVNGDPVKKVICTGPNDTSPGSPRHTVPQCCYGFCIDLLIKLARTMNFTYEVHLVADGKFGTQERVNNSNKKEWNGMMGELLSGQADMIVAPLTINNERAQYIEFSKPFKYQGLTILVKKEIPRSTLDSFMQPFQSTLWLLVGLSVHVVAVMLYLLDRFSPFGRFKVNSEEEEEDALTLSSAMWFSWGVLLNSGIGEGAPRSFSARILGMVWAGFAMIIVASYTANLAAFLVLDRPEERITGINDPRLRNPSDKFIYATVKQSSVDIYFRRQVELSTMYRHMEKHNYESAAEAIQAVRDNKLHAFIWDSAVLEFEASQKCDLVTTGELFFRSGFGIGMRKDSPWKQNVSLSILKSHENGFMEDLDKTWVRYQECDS

[5] = target: Interleukin IL-1 R1 (Homo sapiens, UniProt P14778); assay: LeadProfilingScreen radioligand binding
Sequence of Interleukin IL-1 R1 (P14778 18-569): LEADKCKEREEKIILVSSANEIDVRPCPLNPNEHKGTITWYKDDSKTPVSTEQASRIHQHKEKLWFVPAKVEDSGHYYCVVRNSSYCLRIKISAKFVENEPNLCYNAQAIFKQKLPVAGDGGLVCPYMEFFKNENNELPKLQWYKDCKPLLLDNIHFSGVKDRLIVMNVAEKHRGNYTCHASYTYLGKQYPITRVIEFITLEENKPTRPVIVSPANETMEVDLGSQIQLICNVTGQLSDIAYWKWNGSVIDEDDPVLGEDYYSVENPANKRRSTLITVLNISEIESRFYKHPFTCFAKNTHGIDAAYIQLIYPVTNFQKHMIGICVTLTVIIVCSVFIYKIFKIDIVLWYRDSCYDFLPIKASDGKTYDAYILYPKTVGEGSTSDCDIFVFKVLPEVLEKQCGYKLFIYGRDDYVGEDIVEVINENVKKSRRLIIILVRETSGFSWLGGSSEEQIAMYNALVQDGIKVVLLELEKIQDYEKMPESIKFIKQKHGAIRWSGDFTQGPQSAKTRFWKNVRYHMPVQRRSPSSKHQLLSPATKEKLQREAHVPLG

[6] = target: CYP1A2 (Homo sapiens, UniProt P05177); assay: CYP450 inhibition; format: in vitro ADME; settings: read-out: CYP450 Inhibition, 1A2
Sequence of CYP1A2 (P05177 whole entry, species assumed): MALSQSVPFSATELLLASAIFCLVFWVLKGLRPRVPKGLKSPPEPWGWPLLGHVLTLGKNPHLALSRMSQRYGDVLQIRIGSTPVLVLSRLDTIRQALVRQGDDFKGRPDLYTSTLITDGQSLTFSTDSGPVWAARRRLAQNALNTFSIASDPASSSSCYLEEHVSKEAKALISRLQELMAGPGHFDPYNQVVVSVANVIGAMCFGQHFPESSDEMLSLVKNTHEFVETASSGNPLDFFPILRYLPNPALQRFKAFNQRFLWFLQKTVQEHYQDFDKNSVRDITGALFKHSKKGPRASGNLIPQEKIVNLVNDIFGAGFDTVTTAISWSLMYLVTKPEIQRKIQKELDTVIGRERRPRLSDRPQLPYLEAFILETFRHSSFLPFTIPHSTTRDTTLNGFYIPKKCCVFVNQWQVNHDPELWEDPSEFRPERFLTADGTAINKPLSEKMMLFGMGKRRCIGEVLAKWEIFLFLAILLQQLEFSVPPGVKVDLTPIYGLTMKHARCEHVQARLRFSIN

[7] = target: Opiate μ (OP3, MOP) (Homo sapiens, UniProt P35372); assay: LeadProfilingScreen radioligand binding
Sequence of Opiate μ (OP3, MOP) (P35372 whole entry): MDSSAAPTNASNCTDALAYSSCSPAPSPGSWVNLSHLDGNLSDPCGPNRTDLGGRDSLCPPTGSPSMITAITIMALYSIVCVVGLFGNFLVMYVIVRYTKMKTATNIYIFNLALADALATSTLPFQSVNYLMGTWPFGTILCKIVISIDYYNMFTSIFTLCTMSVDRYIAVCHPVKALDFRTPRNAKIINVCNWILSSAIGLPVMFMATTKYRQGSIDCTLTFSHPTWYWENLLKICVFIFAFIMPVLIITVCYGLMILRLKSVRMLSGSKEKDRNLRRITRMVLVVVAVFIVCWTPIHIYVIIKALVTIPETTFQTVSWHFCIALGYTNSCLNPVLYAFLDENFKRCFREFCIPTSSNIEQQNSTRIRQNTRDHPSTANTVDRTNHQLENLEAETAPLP

Sequence of Prostanoid EP4 (P35408 whole entry): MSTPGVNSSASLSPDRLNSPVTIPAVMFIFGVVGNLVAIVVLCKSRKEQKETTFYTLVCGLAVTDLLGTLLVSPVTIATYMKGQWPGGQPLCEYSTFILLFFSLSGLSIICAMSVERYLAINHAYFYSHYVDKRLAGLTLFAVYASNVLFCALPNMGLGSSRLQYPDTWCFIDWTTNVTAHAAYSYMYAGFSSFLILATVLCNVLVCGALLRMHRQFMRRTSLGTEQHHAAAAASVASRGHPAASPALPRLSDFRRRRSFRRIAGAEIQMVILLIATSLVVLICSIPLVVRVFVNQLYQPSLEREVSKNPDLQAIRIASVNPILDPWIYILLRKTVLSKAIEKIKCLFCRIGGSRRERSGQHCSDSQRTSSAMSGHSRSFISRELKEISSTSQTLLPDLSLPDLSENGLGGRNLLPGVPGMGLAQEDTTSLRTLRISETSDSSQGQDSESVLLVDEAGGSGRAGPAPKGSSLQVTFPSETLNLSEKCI

## Cc1cc(Cl)cc2sc(O[C@H]3CCN(C(=O)CCCS(=O)(=O)c4cccc(Br)c4)C[C@H]3F)nc12 [VU6047606]
[1]
  inhibition at 10 µM: 23%
[2]
  Hill coefficient: 1.02 ± 0.12
[2]; currents at +100 mV, read-out: mSLO3 IC50 (mouse sperm KSper currents)
  IC50: 1470 nM
[3]
  inhibition at 10 µM: 12%
[4]
  inhibition at 10 µM: -1%
[5]
  inhibition at 10 µM: 1%
[6]
  IC50: > 30000 nM
[7]
  inhibition at 10 µM: 22%

## O=C(c1ccc(OCc2ccc(OC(F)(F)F)cc2)cc1)N1CCN(c2ccc(C(F)(F)F)cn2)CC1 [VU6032735]
[1]
  inhibition at 10 µM: -2%
[2]; mouse sperm
  fold more potent than VU6047606 on mouse SLO3 currents: ~1.6 fold
[2]
  Hill coefficient: 0.78 ± 0.07
[2]; read-out: mSLO3 IC50 (mouse sperm)
  IC50: 910 nM
[3]
  inhibition at 10 µM: 7%
[4]
  inhibition at 10 µM: -3%
[5]
  inhibition at 10 µM: -7%
[6]
  IC50: > 30000 nM
[7]
  inhibition at 10 µM: 11%
